The text below walks through data of patent US10464922B2, “Metalloenzyme inhibitor compounds” (NQP 1598 LTD., priority 2015, dated 2019).

Structures are written as SMILES. In brackets after ≈: the same amount, converted by molar mass.

Experiment [1] has as its system C. albicans (ATCC 90028). In words: Minimum inhibitory concentration, in vitro broth microdilution assay (CLSI M27-A2). Particulars: Candida albicans, ATCC90028, 48 h, ATCC 90028; about 50% growth reduction; 2 days at 36° C.; range tested 8-0.0078 μg/mL; values given as ranges; read-out: Candida albicans MIC. In kind it is cell-based, Candida albicans. A digest of the protocol: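 CLSI M27-A2 broth microdilution: 11 two-fold DMSO dilutions into RPMI-1640+MOPS with 1×10^3–1×10^4 CFU/mL, 2 percent DMSO final. Incubated 2 days at 36° C; MIC from visual growth scoring, duplicates.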
On the technique in general: Broth dilution looks for growth in wells or tubes with falling amounts of substance.

Experiment [2] has as its system A. fumigatus. Put plainly: A. fumigatus MIC at 100% growth inhibition (CLSI M38-A2). In kind it is cell-based, Aspergillus fumigatus. The conditions noted are these: Aspergillus fumigatus, 100% growth inhibition; range tested 8-0.0078 μg/mL; values given as ranges; read-out: Aspergillus fumigatus MIC. Here is the method: A. fumigatus MICs were determined at 100% growth inhibition following CLSI guidelines at a concentration range of 8-0.0078 μg/mL (CLSI M38-A2).

For the compound `CCn1ncn(-c2ccc(N3CCN(c4ccc(-c5ccc(C(F)(F)[C@](O)(Cn6cnnn6)c6ccc(F)cc6F)nc5)cc4)CC3)cc2)c1=O` [Example 54, (R)-4-(4-(4-(4-(6-(2-(2,4-difluorophenyl)-1,1-difluoro-2-hydroxy-3-(1H-tetrazol-1-yl)propyl)pyridin-3-yl)phenyl)piperazin-1-yl)phenyl)-2-ethyl-2,4-dihydro-3H-1,2,4-triazol-3-one], the MIC lay within 0.01 to 0.1 mg/L (≈ 0.0143 to 0.143 µM) in experiment [1] and 0.062 to 0.25 mg/L (≈ 0.0885 to 0.357 µM) in experiment [2].
As for `CCC(C)n1ncn(-c2ccc(N3CCN(c4ccc(-c5ccc(C(F)(F)[C@](O)(Cn6cnnn6)c6ccc(F)cc6F)nc5)cc4)CC3)cc2)c1=O` (stereo partly drawn) [Example 55, 2-(sec-butyl)-4-(4-(4-(4-(6-((R)-2-(2,4-difluorophenyl)-1,1-difluoro-2-hydroxy-3-(1H-tetrazol-1-yl)propyl)pyridin-3-yl)phenyl)piperazin-1-yl)phenyl)-2,4-dihydro-3H-1,2,4-triazol-3-one], the MIC lay in the range of 0.01 to 0.1 mg/L (≈ 0.0137 to 0.137 µM) in experiment [1] and 0.062 to 0.25 mg/L (≈ 0.0851 to 0.343 µM) in experiment [2].
The matching figures for `CC(O)c1ccc(N2CCN(c3ccc(-c4ccc(C(F)(F)[C@](O)(Cn5cnnn5)c5ccc(F)cc5F)nc4)cc3)CC2)cc1` (stereo partly drawn) [Example 56, (2R)-2-(2,4-difluorophenyl)-1,1-difluoro-1-(5-(4-(4-(4-(1-hydroxyethyl)phenyl)piperazin-1-yl)phenyl)pyridin-2-yl)-3-(1H-tetrazol-1-yl) propan-2-ol]: 0.01 to 0.1 mg/L (≈ 0.0158 to 0.158 µM) and 0.25 to 1 mg/L (≈ 0.395 to 1.58 µM).
On to `CC[C@H](NC(=O)c1ccc(N2CCN(c3ccc(-c4ccc(C(F)(F)[C@](O)(Cn5cnnn5)c5ccc(F)cc5F)nc4)cc3)CC2)cc1)[C@H](C)O` [Example 57, 4-(4-(4-(6-((R)-2-(2,4-difluorophenyl)-1,1-difluoro-2-hydroxy-3-(1H-tetrazol-1-yl)propyl)pyridin-3-yl)phenyl)piperazin-1-yl)-N-((2S,3S)-2-hydroxypentan-3-yl) benzamide], for which the MIC in experiment [1] lay within 0.01 to 0.1 mg/L (≈ 0.0139 to 0.139 µM); in experiment [2], 0.25 to 1 mg/L (≈ 0.348 to 1.39 µM).
The matching figures for `O=c1n(-c2ccc(N3CCN(c4ccc(-c5ccc(C(F)(F)[C@](O)(Cn6cnnn6)c6ccc(F)cc6F)nc5)cc4)CC3)cc2)cnn1CC(F)(F)F` [Example 58, (R)-4-(4-(4-(4-(6-(2-(2,4-difluorophenyl)-1,1-difluoro-2-hydroxy-3-(1H-tetrazol-1-yl)propyl)pyridin-3-yl)phenyl)piperazin-1-yl)phenyl)-2-(2,2,2-trifluoroethyl)-2,4-dihydro-3H-1,2,4-triazol-3-one]: 0.0078 to 0.01 mg/L (≈ 0.0103 to 0.0133 µM) and 0.062 to 0.25 mg/L (≈ 0.0822 to 0.331 µM).
Regarding `CCC(C)C(O)c1ccc(N2CCN(c3ccc(-c4ccc(C(F)(F)[C@](O)(Cn5cnnn5)c5ccc(F)cc5F)nc4)cc3)CC2)cc1` (stereo partly drawn) [Example 59, 1-(4-(4-(4-(6-((R)-2-(2,4-difluorophenyl)-1,1-difluoro-2-hydroxy-3-(1H-tetrazol-1-yl)propyl)pyridin-3-yl)phenyl)piperazin-1-yl)phenyl)-2-methylbutan-1-ol], the figures for the MIC in experiment [1] and in experiment [2] were 0.0078 to 0.01 mg/L (≈ 0.0115 to 0.0148 µM) and 0.25 to 1 mg/L (≈ 0.37 to 1.48 µM), respectively.
The matching figures for `O=c1[nH]ncn1-c1ccc(N2CCN(c3ccc(-c4ccc(C(F)(F)[C@](O)(Cn5cnnn5)c5ccc(F)cc5F)nc4)cc3)CC2)cc1` [Example 60, (R)-4-(4-(4-(4-(6-(2-(2,4-difluorophenyl)-1,1-difluoro-2-hydroxy-3-(1H-tetrazol-1-yl)propyl)pyridin-3-yl)phenyl)piperazin-1-yl)phenyl)-2,4-dihydro-3H-1,2,4-triazol-3-one]: 0.0078 to 0.01 mg/L (≈ 0.0116 to 0.0149 µM) and 0.25 to 1 mg/L (≈ 0.372 to 1.49 µM).
The matching figures for `CN(C)CCn1ncn(-c2ccc(N3CCN(c4ccc(-c5ccc(C(F)(F)[C@](O)(Cn6cnnn6)c6ccc(F)cc6F)nc5)cc4)CC3)cc2)c1=O` [Example 61, (R)-4-(4-(4-(4-(6-(2-(2,4-difluorophenyl)-1,1-difluoro-2-hydroxy-3-(1H-tetrazol-1-yl)propyl)pyridin-3-yl)phenyl)piperazin-1-yl)phenyl)-2-(2-(dimethylamino)ethyl)-2,4-dihydro-3H-1,2,4-triazol-3-one]: 0.01 to 0.1 mg/L (≈ 0.0134 to 0.134 µM) and 0.25 to 1 mg/L (≈ 0.336 to 1.34 µM).
The matching figures for `OC(c1ccc(N2CCN(c3ccc(-c4ccc(C(F)(F)[C@](O)(Cn5cnnn5)c5ccc(F)cc5F)nc4)cc3)CC2)s1)C(F)(F)F` (stereo partly drawn) [Example 62, (2R)-2-(2,4-difluorophenyl)-1,1-difluoro-3-(1H-tetrazol-1-yl)-1-(5-(4-(4-(5-(2,2,2-trifluoro-1-hydroxyethyl)thiophen-2-yl)piperazin-1-yl)phenyl)pyridin-2-yl) propan-2-ol]: 0.0078 to 0.01 mg/L (≈ 0.0112 to 0.0144 µM) and 0.25 to 1 mg/L (≈ 0.36 to 1.44 µM).
For the compound `CCC(C)C(O)c1ccc(N2CCN(c3ccc(-c4ccc(C(F)(F)[C@](O)(Cn5cnnn5)c5ccc(F)cc5F)nc4)cc3)CC2)cn1` (stereo partly drawn) [Example 65, 1-(5-(4-(4-(6-((R)-2-(2,4-difluorophenyl)-1,1-difluoro-2-hydroxy-3-(1H-tetrazol-1-yl)propyl)pyridin-3-yl)phenyl)piperazin-1-yl)pyridin-2-yl)-2-methylbutan-1-ol], the MIC in experiment [1] fell in the range of 0.0078 to 0.01 mg/L (≈ 0.0115 to 0.0148 µM); in experiment [2], 0.25 to 1 mg/L (≈ 0.369 to 1.48 µM).
The matching figures for `CCC(CC)n1ncn(-c2ccc(N3CCN(c4ccc(-c5ccc(C(F)(F)[C@](O)(Cn6cnnn6)c6ccc(F)cc6F)nc5)cc4)CC3)cc2)c1=O` [Example 66, (R)-4-(4-(4-(4-(6-(2-(2,4-difluorophenyl)-1,1-difluoro-2-hydroxy-3-(1H-tetrazol-1-yl)propyl)pyridin-3-yl)phenyl)piperazin-1-yl)phenyl)-2-(pentan-3-yl)-2,4-dihydro-3H-1,2,4-triazol-3-one]: 0.0078 to 0.01 mg/L (≈ 0.0105 to 0.0135 µM) and 0.25 to 1 mg/L (≈ 0.337 to 1.35 µM).
The matching figures for `CC(C)(O)Cn1ncn(-c2ccc(N3CCN(c4ccc(-c5ccc(C(F)(F)[C@](O)(Cn6cnnn6)c6ccc(F)cc6F)nc5)cc4)CC3)cc2)c1=O` [Example 67, (R)-4-(4-(4-(4-(6-(2-(2,4-difluorophenyl)-1,1-difluoro-2-hydroxy-3-(1H-tetrazol-1-yl)propyl)pyridin-3-yl)phenyl)piperazin-1-yl)phenyl)-2-(2-hydroxy-2-methylpropyl)-2,4-dihydro-3H-1,2,4-triazol-3-one]: 0.0078 to 0.01 mg/L (≈ 0.0105 to 0.0134 µM) and 0.062 to 0.25 mg/L (≈ 0.0832 to 0.336 µM).
For the compound `CC(C)C(C)C(O)c1ccc(N2CCN(c3ccc(-c4ccc(C(F)(F)[C@](O)(Cn5cnnn5)c5ccc(F)cc5F)nc4)cc3)CC2)cn1` (stereo partly drawn) [Example 68, 1-(5-(4-(4-(6-((R)-2-(2,4-difluorophenyl)-1,1-difluoro-2-hydroxy-3-(1H-tetrazol-1-yl)propyl)pyridin-3-yl)phenyl)piperazin-1-yl)pyridin-2-yl)-2,3-dimethylbutan-1-ol], the MIC in experiment [1] was in the range of 0.0078 to 0.01 mg/L (≈ 0.0113 to 0.0145 µM); in experiment [2], 0.25 to 1 mg/L (≈ 0.362 to 1.45 µM).
In the case of `CC(C)c1nc2cc(N3CCN(c4ccc(-c5ccc(C(F)(F)[C@](O)(Cn6cnnn6)c6ccc(F)cc6F)nc5)cc4)CC3)ccc2[nH]1` [Example 69, (R)-2-(2,4-difluorophenyl)-1,1-difluoro-1-(5-(4-(4-(2-isopropyl-1H-benzo [d]imidazol-5-yl)piperazin-1-yl)phenyl)pyridin-2-yl)-3-(1H-tetrazol-1-yl) propan-2-ol], the MIC in experiment [1] is 0.01 to 0.1 mg/L (≈ 0.0149 to 0.149 µM); in experiment [2], greater than 8 mg/L.
The matching figures for `CCC(c1nc2cc(N3CCN(c4ccc(-c5ccc(C(F)(F)[C@](O)(Cn6cnnn6)c6ccc(F)cc6F)nc5)cc4)CC3)ccc2[nH]1)C(C)O` (stereo partly drawn) [Example 71, 3-(5-(4-(4-(6-((R)-2-(2,4-difluorophenyl)-1,1-difluoro-2-hydroxy-3-(1H-tetrazol-1-yl)propyl)pyridin-3-yl)phenyl)piperazin-1-yl)-1H-benzo [d]imidazol-2-yl)pentan-2-ol]: 0.0078 to 0.01 mg/L (≈ 0.0109 to 0.014 µM) and 0.25 to 1 mg/L (≈ 0.349 to 1.4 µM).
Regarding `CC(C)(O)c1ccc(N2CCN(c3ccc(-c4ccc(C(F)(F)[C@](O)(Cn5cnnn5)c5ccc(F)cc5F)nc4)cc3)CC2)cc1` [Example 72, (R)-2-(2,4-difluorophenyl)-1,1-difluoro-1-(5-(4-(4-(4-(2-hydroxypropan-2-yl)phenyl)piperazin-1-yl)phenyl)pyridin-2-yl)-3-(1H-tetrazol-1-yl) propan-2-ol], the results for the MIC in experiment [1] and in experiment [2] were 0.0078 to 0.01 mg/L (≈ 0.012 to 0.0154 µM) and 0.25 to 1 mg/L (≈ 0.386 to 1.54 µM), respectively.
The matching figures for `N#Cc1ccc2nc(N3CCN(c4ccc(-c5ccc(C(F)(F)[C@](O)(Cn6cnnn6)c6ccc(F)cc6F)nc5)cc4)CC3)sc2c1` [Example 73, (R)-2-(4-(4-(6-(2-(2,4-difluorophenyl)-1,1-difluoro-2-hydroxy-3-(1H-tetrazol-1-yl)propyl)pyridin-3-yl)phenyl)piperazin-1-yl) benzo [d] thiazole-6-carbonitrile]: 0.0078 to 0.01 mg/L (≈ 0.0116 to 0.0149 µM) and greater than 8 mg/L.
Consider `N#Cc1ccc2nc(N3CCN(c4ccc(-c5ccc(C(F)(F)[C@](O)(Cn6cnnn6)c6ccc(F)cc6F)nc5)cc4)CC3)[nH]c2c1` [Example 74, (R)-2-(4-(4-(6-(2-(2,4-difluorophenyl)-1,1-difluoro-2-hydroxy-3-(1H-tetrazol-1-yl)propyl)pyridin-3-yl)phenyl)piperazin-1-yl)-1H-benzo [d] imidazole-6-carbonitrile], for which the values for the MIC in experiment [1] and in experiment [2] were 0.0078 to 0.01 mg/L (≈ 0.0119 to 0.0153 µM) and greater than 8 mg/L, respectively.
Turning to `CC(O)C(C)n1ncn(-c2ccc(N3CCN(c4ccc(-c5ccc(C(F)(F)[C@](O)(Cn6cnnn6)c6ccc(F)cc6F)nc5)cc4)CC3)cc2)c1=O` (stereo partly drawn) [Example 75, 4-(4-(4-(4-(6-((R)-2-(2,4-difluorophenyl)-1,1-difluoro-2-hydroxy-3-(1H-tetrazol-1-yl)propyl)pyridin-3-yl)phenyl)piperazin-1-yl)phenyl)-2-(3-hydroxybutan-2-yl)-2,4-dihydro-3H-1,2,4-triazol-3-one], the MIC in experiment [1] was 0.0078 to 0.01 mg/L (≈ 0.0105 to 0.0134 µM); in experiment [2], 0.062 to 0.25 mg/L (≈ 0.0832 to 0.336 µM).

A word on the MIC: it is the smallest concentration in the dilution series that meets the test's criterion for growth inhibition.
